Measured values taken from patent US10702498B2 (priority 2015, dated 2020).
Read-outs that look alike come from different tables or passages of the source.

What was measured:
[1] = target: μOR β-arrestin2 recruitment (Homo sapiens (Human), UniProt P35372); assay: β-Arrestin2 recruitment without GRK2 co-expression (BRET); format: cell-based
[2] = target: human μOR β-arrestin2 recruitment + GRK2 (Homo sapiens (Human), UniProt P35372); assay: β-Arrestin2 recruitment with GRK2 co-expression (BRET); format: cell-based; conditions: GRK2 co-expressed
μOR = μOR (Homo sapiens (Human), UniProt P35372); assay: cell-based; format: cell-based
MOR = MOR (Homo sapiens (Human), UniProt P35372); assay: Receptor binding, [3H]diprenorphine
humanDOR = humanDOR (Homo sapiens (Human), UniProt P41143); assay: Receptor binding, [3H]diprenorphine
hKOR = hKOR (Homo sapiens (Human), UniProt P41145); assay: Receptor binding, [3H]diprenorphine
[3] = read-out: binding affinity Ki [nM] hDOR

Chain of hKOR (P41145 whole entry): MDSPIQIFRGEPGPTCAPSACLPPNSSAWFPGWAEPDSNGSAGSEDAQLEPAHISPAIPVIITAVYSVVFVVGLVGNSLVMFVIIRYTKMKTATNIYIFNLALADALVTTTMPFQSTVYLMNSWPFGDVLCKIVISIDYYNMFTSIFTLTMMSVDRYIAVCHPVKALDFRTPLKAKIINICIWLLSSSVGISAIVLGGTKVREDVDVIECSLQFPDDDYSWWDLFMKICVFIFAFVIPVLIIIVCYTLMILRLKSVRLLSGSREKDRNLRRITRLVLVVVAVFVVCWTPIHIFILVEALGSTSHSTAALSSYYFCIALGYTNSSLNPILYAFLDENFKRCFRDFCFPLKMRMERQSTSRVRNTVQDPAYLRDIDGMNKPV
Chain of humanDOR (P41143 whole entry): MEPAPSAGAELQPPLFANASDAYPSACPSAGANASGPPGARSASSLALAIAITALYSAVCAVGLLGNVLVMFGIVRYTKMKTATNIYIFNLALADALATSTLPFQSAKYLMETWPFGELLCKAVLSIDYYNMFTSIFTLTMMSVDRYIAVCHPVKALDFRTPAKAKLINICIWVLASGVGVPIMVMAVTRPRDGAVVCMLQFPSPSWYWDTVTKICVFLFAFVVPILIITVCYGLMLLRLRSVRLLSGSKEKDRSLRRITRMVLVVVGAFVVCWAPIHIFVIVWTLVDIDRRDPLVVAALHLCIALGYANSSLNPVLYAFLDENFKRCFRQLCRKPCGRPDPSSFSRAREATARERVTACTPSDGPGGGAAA
Chain of MOR (P35372 whole entry): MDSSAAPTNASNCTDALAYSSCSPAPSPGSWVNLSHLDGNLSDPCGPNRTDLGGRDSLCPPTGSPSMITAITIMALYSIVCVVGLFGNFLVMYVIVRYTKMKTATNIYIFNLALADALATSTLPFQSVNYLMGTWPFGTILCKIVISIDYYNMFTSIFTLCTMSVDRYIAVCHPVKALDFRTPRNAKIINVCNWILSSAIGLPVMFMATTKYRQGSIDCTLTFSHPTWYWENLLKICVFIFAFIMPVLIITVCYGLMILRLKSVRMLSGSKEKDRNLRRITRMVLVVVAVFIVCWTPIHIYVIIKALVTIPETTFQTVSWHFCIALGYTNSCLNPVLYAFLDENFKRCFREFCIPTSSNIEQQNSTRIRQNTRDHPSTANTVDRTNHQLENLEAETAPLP

Structure (SMILES)	Arrestin pEC50 [1]	Arrestin + GRK2 pEC50 [2]	Gi/o pEC50 (μOR)	also measured
C[C@@H](Cc1csc2ccccc12)NC(=O)NC[C@H](Cc1ccc(O)cc1)N(C)C [DD 63L-LB]	6.401	7.086	8.244	
CC(Cc1csc2ccccc12)NC(=O)NC[C@H](Cc1ccc(O)cc1)N(C)C (mixture of isomers) [DD 63L-RS]				Ki (MOR; binding affinity Ki [nM] hMOR): 14 nM; Ki (MOR; hMOR [3H]dyprenorphine Ki): 16 ± 1.4 nM; Ki (humanDOR): 44 ± 1.4 nM; Ki (humanDOR; [3]): 44 nM; Ki (hKOR; binding affinity Ki [nM] hKOR): 19 nM; Ki (hKOR; hKOR [3H]dyprenorphine Ki): 14 ± 0.71 nM
CN(C)[C@H](CNC(=O)NCCc1cccc(F)c1)Cc1ccc(O)cc1 [DDLM-10, (S)-1-(2-(dimethylamino)-3-(4-hydroxyphenyl)propyl)-3-(3-fluorophenethyl)urea]				Ki (MOR; binding affinity Ki [nM] hMOR): 36 nM; Ki (humanDOR): 250 nM; Ki (hKOR; binding affinity Ki [nM] hKOR): 170 nM
C[C@@H](Cc1ccsc1)NC(=O)NC[C@H](Cc1ccccc1)N(C)C [(S,S)-12, 1-[(S)-2-(Dimethylamino)-3-phenylpropyl]-3-[(S)-1-(thiophen-3-yl)propan-2-yl]urea]				Gi/o activation / μOR agonist activity (μOR): most potent and efficacious Gi/o signaling agonist among the four isomers
C=CCN(CC(Cc1ccccc1)N(C)C)C(=O)N[C@H](C)Cc1ccsc1 (stereo partly shown) [DD 93B]				Ki (humanDOR; [3]): ~15000 nM
CN(C)[C@H](CNC(=O)NCCc1ccccc1)Cc1ccc(O)cc1 [DD 90]	7.272	6.841	8.371	
C[C@H](Cc1ccsc1)NC(=O)NC[C@H](Cc1ccccc1)N(C)C (stereo in doubt) [BD 127LR]				Ki (humanDOR): 1800 ± 150 nM; Ki (humanDOR; [3]): 1800 nM; Ki (hKOR; binding affinity Ki [nM] hKOR): 1300 nM; Ki (hKOR; hKOR [3H]dyprenorphine Ki): 1300 ± 300 nM
C=CCN(CC(Cc1ccccc1)N(C)C)C(=O)N[C@@H](C)Cc1ccsc1 (stereo partly shown) [DD 93A]				Ki (humanDOR; [3]): ~15000 nM
CN(CCc1ccccc1)C(=O)NC[C@H](Cc1ccc(O)cc1)N(C)C [DD 102]	5.703	5.824	7.421	
C[C@H](NC(=O)NC[C@H](Cc1ccc(O)cc1)N(C)C)c1ccccc1 [DD 53LS, 1-((S)-2-(dimethylamino)-3-(4-hydroxyphenyl)propyl)-3-((S)-1-phenylethyl)urea]	7.168	7.059	8.512	
CN(CCCl)[C@H](CNC(=O)NCCc1ccccc1)Cc1ccc(O)cc1 [DD185, (S)-1-(2-((2-chloroethyl)(methyl)amino)-3-(4-hydroxyphenyl)propyl)-3-phenethylurea]				Ki (humanDOR): 360 nM
C[C@H](Cc1ccsc1)NC(=O)NC[C@H](Cc1ccc(O)cc1)N(C)C [(S,R)-21, 1-[(S)-2-(Dimethylamino)-3-(4-hydroxyphenyl)propyl]-3-((R)-1-(thiophen-3-yl)propan-2-yl)urea]				Gi/o activation / μOR agonist activity (μOR): more potent partial agonist of the μOR as compared to (S,S)-21
CN(C)[C@H](CNC(=O)NC(C)(C)Cc1ccccc1)Cc1ccc(O)cc1 [DD 33L, (S)-1-(2-(dimethylamino)-3-(4-hydroxyphenyl)propyl)-3-(2-methyl-1-phenylpropan-2-yl)urea]		6.874	7.008	
CN(C[C@H](Cc1ccc(O)cc1)N(C)C)C(=O)NCCc1ccccc1 [DD 108]	5.327	5.826	7.455	
CN(C)[C@H](CNC(=O)NCCc1cn(CCOCCOCCOCCOCCOCCNC(=O)CCCC[C@@H]2SC[C@@H]3NC(=O)N[C@@H]32)nn1)Cc1ccc(O)cc1 [DD 170, N-(17-(4-(2-(3-((S)-2-(dimethylamino)-3-(4-hydroxyphenyl)propyl)ureido)ethyl)-1H-1,2,3-triazol-1-yl)-3,6,9,12,15-pentaoxaheptadecyl)-5-((3aS,4S,6aR)-2-oxohexahydro-1H-thieno[3,4-d]imidazol-4-yl)pentanamide]				Ki (MOR; read-out: binding affinity Ki [nM] hMOR): 13000 nM
CN(C)[C@H](CNC(=O)NCCc1cn(Cc2ccccc2)nn1)Cc1ccc(O)cc1 [DD 154, (S)-1-(2-(1-benzyl-1H-1,2,3-triazol-4-yl)ethyl)-3-(2-(dimethylamino)-3-(4-hydroxyphenyl)propyl)urea]				Ki (humanDOR): 580 nM
C[C@@H](Cc1ccccc1)NC(=O)NC[C@H](Cc1ccc(O)cc1)N(C)C [DD 61L-B, 1-((S)-2-(dimethylamino)-3-(4-hydroxyphenyl)propyl)-3-((S)-1-phenylpropan-2-yl)urea]	7.075	6.556	7.45	
CN(C)[C@H](CNC(=O)NCCc1cn(CCOCCOCCOCCN=[N+]=[N-])nn1)Cc1ccc(O)cc1 [DD 165, (S)-1-(2-(1-(2-(2-(2-(2-azidoethoxy)ethoxy)ethoxy)ethyl)-1H-1,2,3-triazol-4-yl)ethyl)-3-(2-(dimethylamino)-3-(4-hydroxyphenyl)propyl)urea]				Ki (humanDOR): 3900 nM; Ki (hKOR; binding affinity Ki [nM] hKOR): 2900 nM
CN(CC1CC1)[C@H](CNC(=O)NCCc1ccccc1)Cc1ccc(O)cc1 [DD 184]			6.253	
CN(C)[C@H](CNC(=O)NC(C)(C)Cc1ccsc1)Cc1ccc(O)cc1 [DD 32L, (S)-1-(2-(dimethylamino)-3-(4-hydroxyphenyl)propyl)-3-(2-methyl-1-(thiophen-3-yl)propan-2-yl)urea]	8.282	7.306	7.629	
CN(C)[C@H](CNC(=O)NCCCN1C(=O)C=CC1=O)Cc1ccc(O)cc1 [DD 138, (S)-1-(2-(dimethylamino)-3-(4-hydroxyphenyl)propyl)-3-(3-(2,5-dioxo-2,5-dihydro-1H-pyrrol-1-yl)propyl)urea]				Ki (MOR; binding affinity Ki [nM] hMOR): 580 nM
C[C@@H](Cc1ccsc1)NC(=O)NC[C@H](Cc1ccc(O)c(CO)c1)N(C)C [DD 131, 1-((S)-2-(dimethylamino)-3-(4-hydroxy-3-(hydroxymethyl)phenyl)propyl)-3-((S)-1-(thiophen-3-yl)propan-2-yl)urea]	6.639	6.671	8.1	
C[C@@H](Cc1ccsc1)NC(=O)NC[C@H](Cc1cccc(O)c1)N(C)C [DD 47LS, 1-((S)-2-(dimethylamino)-3-(3-hydroxyphenyl)propyl)-3-((S)-1-(thiophen-3-yl)propan-2-yl)urea]	6.447	6.676	7.77	
CN(C)[C@H](CNC(=O)NCCc1cn(CCOCCOCCN=[N+]=[N-])nn1)Cc1ccc(O)cc1 [DD 161, (S)-1-(2-(1-(2-(2-(2-azidoethoxy)ethoxy)ethyl)-1H-1,2,3-triazol-4-yl)ethyl)-3-(2-(dimethylamino)-3-(4-hydroxyphenyl)propyl)urea]				Ki (humanDOR): 3000 nM; Ki (hKOR): 1200 nM
CN(C)[C@H](CNC(=S)NCCc1ccsc1)Cc1ccc(O)cc1 [DD 81, (S)-1-(2-(dimethylamino)-3-(4-hydroxyphenyl)propyl)-3-(2-(thiophen-3-yl)ethyl)thiourea]	7.604	7.173	7.821	
